According to patent US20260027116A1, “Methods of Treating Chronic Graft-Versus-Host Disease Following Allogeneic Hematopoietic Stem Cell Transplantation” (Kadmon Corporation, LLC, priority 2022, published 2026):

Test system: patients with cGVHD
Conditions: Cohort 2 200 mg BID

## CC(C)NC(=O)COc1cccc(-c2nc(Nc3ccc4[nH]ncc4c3)c3ccccc3n2)c1 [Belumosudil, 2-{3-[4-(1H-indazol-5-ylamino)-2-quinazolinyl]phenoxy}-N-(propan-2-yl) acetamide]
  Bronchoscopy: # Events: 0
  Bronchoscopy: Affected/At Risk (%): 0/16 (0%)
  Catheter site haemorrhage: # Events: 0
  Catheter site haemorrhage: Affected/At Risk (%): 0/16 (0%)
  Chills: # Events: 1
  Chills: Affected/At Risk (%): 1/16 (6.25%)
  Chronic kidney disease: # Events: 0
  Chronic kidney disease: Affected/At Risk (%): 0/16 (0%)
  Conjunctival haemorrhage: # Events: 1
  Conjunctival haemorrhage: Affected/At Risk (%): 1/16 (6.25%)
  Conjunctivitis: # Events: 1
  Conjunctivitis: Affected/At Risk (%): 1/16 (6.25%)
  Constipation: # Events: 1
  Constipation: Affected/At Risk (%): 1/16 (6.25%)
  Contrast media allergy: # Events: 2
  Contrast media allergy: Affected/At Risk (%): 2/16 (12.5%)
  Contusion: # Events: 2
  Contusion: Affected/At Risk (%): 2/16 (12.5%)
  Corneal abrasion: # Events: 0
  Corneal abrasion: Affected/At Risk (%): 0/16 (0%)
  Corneal infection: # Events: 2
  Corneal infection: Affected/At Risk (%): 1/16 (6.25%)
  Cough: # Events: 5
  Cough: Affected/At Risk (%): 4/16 (25%)
  Death, No. (%): 0
  Decreased appetite: # Events: 2
  Decreased appetite: Affected/At Risk (%): 2/16 (12.5%)
  Dehydration: # Events: 4
  Dehydration: Affected/At Risk (%): 3/16 (18.75%)
  Depression: # Events: 4
  Depression: Affected/At Risk (%): 4/16 (25%)
  Diarrhoea: # Events: 10
  Diarrhoea: Affected/At Risk (%): 5/16 (31.25%)
  Dizziness: # Events: 4
  Dizziness: Affected/At Risk (%): 1/16 (6.25%)
  Drug eruption: # Events: 1
  Drug eruption: Affected/At Risk (%): 1/16 (6.25%)
  Drug-related AE, No. (%): 8 (50)
  Drug-related SAE, No. (%): 0
  Dry eye: # Events: 4
  Dry eye: Affected/At Risk (%): 4/16 (25%)
  Dry skin: # Events: 0
  Dry skin: Affected/At Risk (%): 0/16 (0%)
  Dyspepsia: # Events: 2
  Dyspepsia: Affected/At Risk (%): 2/16 (12.5%)
  Dysphagia: # Events: 4
  Dysphagia: Affected/At Risk (%): 3/16 (18.75%)
  Dyspnoea exertional: # Events: 0
  Dyspnoea exertional: Affected/At Risk (%): 0/16 (0%)
  Dyspnoea: # Events: 7
  Dyspnoea: Affected/At Risk (%): 5/16 (31.25%)
  Embolism: # Events: 0
  Embolism: Affected/At Risk (%): 0/16 (0%)
  Enamel anomaly: # Events: 1
  Enamel anomaly: Affected/At Risk (%): 1/16 (6.25%)
  Epidural lipomatosis: # Events: 0
  Epidural lipomatosis: Affected/At Risk (%): 0/16 (0%)
  Epstein-Barr virus infection: # Events: 0
  Epstein-Barr virus infection: Affected/At Risk (%): 0/16 (0%)
  Erectile dysfunction: # Events: 0
  Erectile dysfunction: Affected/At Risk (%): 0/16 (0%)
  Eye irritation: # Events: 0
  Eye irritation: Affected/At Risk (%): 0/16 (0%)
  Eye pain: # Events: 4
  Eye pain: Affected/At Risk (%): 2/16 (12.5%)
  Eye pruritus: # Events: 1
  Eye pruritus: Affected/At Risk (%): 1/16 (6.25%)
  Fall: # Events: 1
  Fall: Affected/At Risk (%): 1/16 (6.25%)
  Fatigue: # Events: 7
  Fatigue: Affected/At Risk (%): 3/16 (18.75%)
  Flatulence: # Events: 2
  Flatulence: Affected/At Risk (%): 1/16 (6.25%)
  Flushing: # Events: 1
  Flushing: Affected/At Risk (%): 1/16 (6.25%)
  Fungal infection: # Events: 0
  Fungal infection: Affected/At Risk (%): 0/16 (0%)
  Gamma-glutamyltransferase increased: # Events: 4
  Gamma-glutamyltransferase increased: Affected/At Risk (%): 4/16 (25%)
  Gastric ulcer: # Events: 1
  Gastric ulcer: Affected/At Risk (%): 1/16 (6.25%)
  Gastrooesophageal reflux disease: # Events: 1
  Gastrooesophageal reflux disease: Affected/At Risk (%): 1/16 (6.25%)
  Generalised oedema: # Events: 0
  Generalised oedema: Affected/At Risk (%): 0/16 (0%)
  Genital infection fungal: # Events: 1
  Genital infection fungal: Affected/At Risk (%): 1/16 (6.25%)
  Glaucoma: # Events: 1
  Glucose urine present: # Events: 0
  Glucose urine present: Affected/At Risk (%): 0/16 (0%)
  Grade ≥3 AE, No. (%): 10 (63)
  Grade ≥3 ALT/AST increased, No. (%): 2 (13)
  Grade ≥3 Anemia, No. (%): 1 (6)
  Grade ≥3 Dyspnea, No. (%): 2 (13)
  Grade ≥3 Hyperglycemia, No. (%): 0
  Grade ≥3 Hypoxia, No. (%): 1 (6)
  Grade ≥3 Lung infection or pneumonia, No. (%): 2 (13)
  Graft versus host disease in gastrointestinal tract: # Events: 0
  Graft versus host disease in gastrointestinal tract: Affected/At Risk (%): 0/16 (0%)
  Gynaecomastia: # Events: 1
  Gynaecomastia: Affected/At Risk (%): 1/16 (6.25%)
  Haematuria: # Events: 1
  Haematuria: Affected/At Risk (%): 1/16 (6.25%)
  Hair growth abnormal: # Events: 0
  Hair growth abnormal: Affected/At Risk (%): 0/16 (0%)
  Headache: # Events: 3
  Headache: Affected/At Risk (%): 3/16 (18.75%)
  Hodgkin's disease recurrent: # Events: 0
  Hodgkin's disease recurrent: Affected/At Risk (%): 0/16 (0%)
  Hordeolum: # Events: 0
  Hordeolum: Affected/At Risk (%): 0/16 (0%)
  Hot flush: # Events: 0
  Hot flush: Affected/At Risk (%): 0/16 (0%)
  Hyperglycemia: # Events: 0
  Hyperglycemia: Affected/At Risk (%): 0/16 (0%)
  Hyperhidrosis: # Events: 1
  Hyperhidrosis: Affected/At Risk (%): 1/16 (6.25%)
  Hyperkalaemia: # Events: 2
  Hyperkalaemia: Affected/At Risk (%): 2/16 (12.5%)
  Hypertension: # Events: 5
  Hypertension: Affected/At Risk (%): 2/16 (12.5%)
  Hyperthyroidism: # Events: 1
  Hyperthyroidism: Affected/At Risk (%): 1/16 (6.25%)
  Hypertriglyceridaemia: # Events: 1
  Hypertriglyceridaemia: Affected/At Risk (%): 1/16 (6.25%)
  Hyperuricaemia: # Events: 2
  Hyperuricaemia: Affected/At Risk (%): 1/16 (6.25%)
  Hypoaesthesia: # Events: 0
  Hypoaesthesia: Affected/At Risk (%): 0/16 (0%)
  Hypocalcaemia: # Events: 4
  Hypocalcaemia: Affected/At Risk (%): 1/16 (6.25%)
  Hypogonadism: # Events: 0
  Hypogonadism: Affected/At Risk (%): 0/16 (0%)
  Hypokalaemia: # Events: 3
  Hypokalaemia: Affected/At Risk (%): 2/16 (12.5%)
  Hypomagnesaemia: # Events: 1
  Hypomagnesaemia: Affected/At Risk (%): 1/16 (6.25%)
  Hyponatraemia: # Events: 0
  Hyponatraemia: Affected/At Risk (%): 0/16 (0%)
  Hypophosphataemia: # Events: 1
  Hypophosphataemia: Affected/At Risk (%): 1/16 (6.25%)
  Hypothermia: # Events: 1
  Hypothermia: Affected/At Risk (%): 1/16 (6.25%)
  Hypothyroidism: # Events: 2
  Hypothyroidism: Affected/At Risk (%): 1/16 (6.25%)
  Hypoxia: # Events: 5
  Hypoxia: Affected/At Risk (%): 2/16 (12.5%)
  Impaired healing: # Events: 0
  Impaired healing: Affected/At Risk (%): 0/16 (0%)
  Influenza like illness: # Events: 2
  Influenza like illness: Affected/At Risk (%): 1/16 (6.25%)
  Influenza: # Events: 2
  Influenza: Affected/At Risk (%): 1/16 (6.25%)
  Insomnia: # Events: 0
  Insomnia: Affected/At Risk (%): 0/16 (0%)
  Irritability: # Events: 0
  Irritability: Affected/At Risk (%): 0/16 (0%)
  Joint range of motion decreased: # Events: 1
  Joint range of motion decreased: Affected/At Risk (%): 1/16 (6.25%)
  Lacrimation increased: # Events: 1
  Lacrimation increased: Affected/At Risk (%): 1/16 (6.25%)
  Leukaemia recurrent: # Events: 0
  Leukaemia recurrent: Affected/At Risk (%): 0/16 (0%)
  Leukocytosis: # Events: 0
  Leukocytosis: Affected/At Risk (%): 0/16 (0%)
  Ligament sprain: # Events: 0
  Ligament sprain: Affected/At Risk (%): 0/16 (0%)
  Limb injury: # Events: 0
  Limb injury: Affected/At Risk (%): 0/16 (0%)
  Macular degeneration: # Events: 1
